Results as given in patent US7786141B2 (Vertex Pharmaceuticals Incorporated, priority 2004, dated 2010).

What was measured:
M1 muscarinic receptor = molecular target: T1, M1 muscarinic receptor (Homo sapiens, UniProt P11229); assay: Functional mobilization of intracellular calcium (FLIPR) in M1-CHO cells; format: cell-based; details: Table 4; for Emax: 100% efficacy is the maximum response obtained with the Carbachol control; for M1 Activity: modulating M1 receptor
T1 construct: expressed in transfected cells; host or cells: CHO (M1-CHO)
T1 sequence (P11229 1-460): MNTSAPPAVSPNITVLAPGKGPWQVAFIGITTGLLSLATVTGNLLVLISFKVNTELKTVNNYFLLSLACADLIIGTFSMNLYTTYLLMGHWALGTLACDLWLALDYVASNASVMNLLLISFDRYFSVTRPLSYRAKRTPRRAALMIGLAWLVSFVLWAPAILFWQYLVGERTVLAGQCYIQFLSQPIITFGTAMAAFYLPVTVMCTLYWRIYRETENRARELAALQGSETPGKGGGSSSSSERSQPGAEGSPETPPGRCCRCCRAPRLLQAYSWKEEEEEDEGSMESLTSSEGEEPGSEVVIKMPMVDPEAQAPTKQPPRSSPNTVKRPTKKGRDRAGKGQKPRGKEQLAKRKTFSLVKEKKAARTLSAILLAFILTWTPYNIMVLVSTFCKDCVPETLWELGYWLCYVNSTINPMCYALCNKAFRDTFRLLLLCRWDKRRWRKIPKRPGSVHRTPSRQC
How it was run: (§1)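 Measured via Fluo-3 fluorescence on a FLIPR, CHO cells with either muscarinic subtype received compound in 0.5% DMSO. Antagonism was assessed after 15 min pre-incubation followed by carbachol at each subtype's EC80; agonism from compound addition alone.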

M4 muscarinic receptor = molecular target: T2, M4 muscarinic receptor (Homo sapiens, UniProt P08173); assay: Functional mobilization of intracellular calcium (FLIPR) in M4-CHO cells; format: cell-based; details: Table 4; for Emax: 100% efficacy is the maximum response obtained with the Carbachol control; for M4 Activity: modulating M4 receptor
T2 construct: expressed in transfected cells; host or cells: CHO (M4-CHO)
T2 sequence (P08173 1-479): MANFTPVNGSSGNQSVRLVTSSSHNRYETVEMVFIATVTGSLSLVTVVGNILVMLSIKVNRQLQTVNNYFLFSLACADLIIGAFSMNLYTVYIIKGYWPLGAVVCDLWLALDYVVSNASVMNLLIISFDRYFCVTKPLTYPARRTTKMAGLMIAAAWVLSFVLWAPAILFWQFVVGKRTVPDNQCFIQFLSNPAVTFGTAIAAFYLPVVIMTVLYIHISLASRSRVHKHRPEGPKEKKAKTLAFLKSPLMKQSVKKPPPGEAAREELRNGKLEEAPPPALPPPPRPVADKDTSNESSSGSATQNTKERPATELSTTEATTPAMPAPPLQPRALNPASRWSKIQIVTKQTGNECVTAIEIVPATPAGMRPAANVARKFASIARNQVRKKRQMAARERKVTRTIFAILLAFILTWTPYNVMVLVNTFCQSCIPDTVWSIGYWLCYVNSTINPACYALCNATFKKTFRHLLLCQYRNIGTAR
How it was run: as §1

Compound | Emax (M1 muscarinic receptor) [%] | M1 Activity (M1 muscarinic receptor) | Emax (M4 muscarinic receptor) [%] | M4 Activity (M4 muscarinic receptor)
CN(C)C(=O)N1CC2(CCN(C3CCN(C(=O)[C@H]4CCCO4)CC3)CC2)c2cc(F)ccc21 [compound 520] | 25 to 100 | x (activity was measured to be greater than 5.0 μM) | < 25 | x (activity was measured to be greater than 5.0 μM)
COc1cc2c(cc1OC)C1(CCN(C3CCCCC3)CC1)C[C@@H]2NC(C)=O [compound 521] | < 25 | x (activity was measured to be greater than 5.0 μM) | < 25 | x (activity was measured to be greater than 5.0 μM)
CCOC(=O)N1CCC(N2CCC3(CC2)CN(C(=O)C(=O)CC)c2ccc(F)cc23)CC1 [compound 522] | > 100 | xxx (activity was measured to be less than 2.0 μM) | 25 to 100 | xxx (activity was measured to be less than 2.0 μM)
O=C(N[C@H]1CC2(CCN(C3C[C@H]4CC[C@@H]3C4)CC2)c2ccccc21)N1CCCCC1 (some centres unmarked) [compound 525] | < 25 | x (activity was measured to be greater than 5.0 μM) | 25 to 100 | xxx (activity was measured to be less than 2.0 μM)
CC#CCOC(=O)N1CCC(N2CCC3(CC2)CN(C(C)=O)c2cccc(C)c23)CC1 [compound 526] | 25 to 100 | xxx (activity was measured to be less than 2.0 μM) | < 25 | x (activity was measured to be greater than 5.0 μM)
CCCC#CCOC(=O)N1CC[C@@H](CN2CCC3(CC2)CN(C(=O)N(C)C)c2ccc(F)cc23)C1 [compound 527] | 25 to 100 | xxx (activity was measured to be less than 2.0 μM) | 25 to 100 | xxx (activity was measured to be less than 2.0 μM)
CN(C)C(=O)N1CC2(CCN(C3CCN(c4cncnc4)CC3)CC2)c2cc(F)ccc21 [compound 528] | 25 to 100 | xx (activity was measured to be between 2.0 μM and 5.0 μM) | 25 to 100 | xxx (activity was measured to be less than 2.0 μM)
CCOC(=O)N1CCC(CN2CCC3(CC2)CN(C(C)=O)c2c(C(F)(F)F)cccc23)CC1 [compound 529] | 25 to 100 | x (activity was measured to be greater than 5.0 μM) | 25 to 100 | xx (activity was measured to be between 2.0 μM and 5.0 μM)
CC(=O)N[C@H]1CC2(CCN(Cc3ccoc3)CC2)c2ccccc21 [compound 530] | < 25 | x (activity was measured to be greater than 5.0 μM) | < 25 | x (activity was measured to be greater than 5.0 μM)
CN(C)C(=O)N1CC2(CCN(C3CCN(C(=O)c4cnccn4)CC3)CC2)c2cc(F)ccc21 [compound 531] | < 25 | x (activity was measured to be greater than 5.0 μM) | < 25 | x (activity was measured to be greater than 5.0 μM)
CC(=O)N1CC2(CCN(CC3CCN(C(=O)OC4CCC4)CC3)CC2)c2cc(F)ccc21 [compound 532] | < 25 | x (activity was measured to be greater than 5.0 μM) | < 25 | x (activity was measured to be greater than 5.0 μM)
CC(=O)N[C@H]1CC2(CCN(CC(=O)N3CC=CC3)CC2)c2ccccc21 [compound 533] | < 25 | x (activity was measured to be greater than 5.0 μM) | < 25 | x (activity was measured to be greater than 5.0 μM)
CN(C)C(=O)N1CC2(CCN(C3CCN(c4ccc(F)cc4)CC3)CC2)c2cc(F)ccc21 [compound 534] | 25 to 100 | xx (activity was measured to be between 2.0 μM and 5.0 μM) | < 25 | xxx (activity was measured to be less than 2.0 μM)
CN(C)C(=O)N1CC2(CCN(C3CCN(c4cccnc4)CC3)CC2)c2cc(F)ccc21 [compound 535] | 25 to 100 | xxx (activity was measured to be less than 2.0 μM) | 25 to 100 | xxx (activity was measured to be less than 2.0 μM)
